Assay results reported in US12497395B2, “Small molecule bromodomain inhibitors and uses therof” (ConverGene, LLC, priority 2019, dated 2025).

Columns and labels:
BRD4 (BD1, 2) = BRD4 (BD1, 2) (Homo sapiens, UniProt O60885); experiment: BROMOscan competitive ligand binding assay, BRD4 (BD1, 2)
[1] = molecular target: T1, full-length recombinant human BRD4 (Homo sapiens, UniProt O60885); experiment: AlphaScreen assay, full-length BRD4 with acetylated histone H4 peptide; format: binding; settings: full-length BRD4, acetylated H4 peptide (1-21) ligand
T1 construct: His-tag (N); purchased Reaction Biology RD-21-153; host or cells: Sf9 insect cells
Description: AlphaScreen® assay, an […], was conducted by following manufacturer's protocol (PerkinElmer, Waltham, MA) at Reaction Biology (Malvern, PA) utilizing full-length recombinant human BRD4 corresponding to amino acid position 2-1362 (NCBI Reference Sequence: NM_058243) expressed in Sf9 insect cells with an N-terminal His-tag (Reaction Biology Catalog No. RD-21-153), and histone H4 peptide (1-21) containing acetylated lysine residues at positions 5, 8, 12 and 16 as the ligand. […] H4 ligand peptide was then added and the mixture was incubated for another 30 minutes at room temperature. Streptavidin-coated donor beads and Ni acceptor beads were then added, and the mixture was incubated for additional 60 minutes. Fluorescent measurements (Ex/Em=680/520-620 nm) were taken and the data were fitted to the Hill equation with variable slopes to obtain IC50 values.

MV4-11 cells = experiment: MV4-11 cytotoxicity assay (CellTiter-Glo); format: cell-based; settings: Homo sapiens, 72 hr incubation
Description: Cell lines: The MV4-11 cell line were obtained from American Type Culture Collection (ATCC, Manassas, VA, USA) and cultured in RPMI 1640 (Invitrogen 11879020) culture medium supplemented with 10% fetal bovine serum and 100 units/mL Penicillin, 100 μg/mL Streptomycin and maintained in a 37° C., 5% CO2/95% humidified air incubator.
Cytotoxicity Assay: MV4-11 cells were cultured as described above, and plated in 1536-well white solid tissue culture plates using a Multidrop Combi peristaltic dispenser (ThermoFisher, Waltham, MA) at a density of 500 cells/well in 5 μL of RPMI 1640 (Invitrogen 11879020) culture medium supplemented with 10% fetal bovine serum and 100 units/mL Penicillin, 100 μg/mL Streptomycin. A 1536-well pintool dispenser outfitted with 20 nL pins (Wako Automation, San Diego, CA) was used to transfer 23 nL of compound in DMSO to the 1536-well assay plates. After 72 hr incubation at 37° C., 2.5 μL of CellTiter-Glo (Promega) was dispensed into each well using a BioRAPTR FRD dispenser (Beckman Coulter, Brea, CA). Plates were incubated at room temperature for 10 minutes, transferred to a ViewLux microplate imager (Perkin Elmer, Waltham, MA) and the ATP-coupled luminescence was measured using a 1 second exposure.

[2] = tested on: acute myeloid leukemia cell line Kasumi-1; experiment: Kasumi-1 cell viability assay (CellTiter-Blue); format: cell-based; settings: Homo sapiens, Kasumi 1; approximately 72 hours exposure, CellTiter-Blue; read-out: Kasumi-1 IC50
Description: Cell viability assay: Cell viability assay was conducted to obtain G150, the compound concentration resulting in 50% growth inhibition, using an acute myeloid leukemia cell line Kasumi-1 (ATCC® CRL-2724™) (ATCC, Manassas, VA). Briefly, cells were seeded on a 96-well flat-bottom cell culture plate at the density of 30,000 cells per well (MV-4-11) or 10,000 cells per well (Kasumi-1) in RPMI supplemented with 10% fetal bovine serum and L-glutamine plus penicillin and streptomycin. Cells were maintained at 37° C. with 5% CO2 for 24 hours then exposed to a given compound at either 11 or 21 concentrations ranging from 0 μM to 20 μM in a 150 μL volume in the presence of 0.2% dimethyl sulfoxide, the solvent used in serial dilution of the compound. The exposure was maintained for approximately 72 hours and the cell viability was measured using CellTiter-Blue® (Promega, Madison, WI) according to manufacturer's instruction. GI50 values were calculated using a four-parameter dose-response model in Graph Pad Prism (La Jolla, CA).

CBP = CBP (Homo sapiens, UniProt Q92793); experiment: BROMOscan competitive ligand binding assay, CBP
P300 = molecular target: T2, P300 (Homo sapiens, UniProt Q09472); experiment: BROMOscan competitive ligand binding assay, P300
T2 sequence (Q09472 1049-1156 limits assumed): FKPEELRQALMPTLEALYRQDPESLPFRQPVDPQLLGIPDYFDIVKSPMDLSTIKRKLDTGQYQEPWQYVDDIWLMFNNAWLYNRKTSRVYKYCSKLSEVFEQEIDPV

BRD2 (BD1) = BRD2 (BD1) (Homo sapiens, UniProt P25440); experiment: BROMOscan competitive ligand binding assay, BRD2 (BD1)
BRD2 (BD1, 2) = BRD2 (BD1, 2) (Homo sapiens, UniProt P25440); experiment: BROMOscan competitive ligand binding assay, BRD2 (BD1, 2)
BRD2 (BD2) = BRD2 (BD2) (Homo sapiens, UniProt P25440); experiment: BROMOscan competitive ligand binding assay, BRD2 (BD2)
BRD3 (BD1) = BRD3 (BD1) (Homo sapiens, UniProt Q15059); experiment: BROMOscan competitive ligand binding assay, BRD3 (BD1)
BRD3 (BD1, 2) = BRD3 (BD1, 2) (Homo sapiens, UniProt Q15059); experiment: BROMOscan competitive ligand binding assay, BRD3 (BD1, 2)
BRD3 (BD2) = BRD3 (BD2) (Homo sapiens, UniProt Q15059); experiment: BROMOscan competitive ligand binding assay, BRD3 (BD2)
BRD4 (BD1) = BRD4 (BD1) (Homo sapiens, UniProt O60885); experiment: BROMOscan competitive ligand binding assay, BRD4 (BD1)
BRD4 (BD2) = BRD4 (BD2) (Homo sapiens, UniProt O60885); experiment: BROMOscan competitive ligand binding assay, BRD4 (BD2)
BRDT (BD1) = BRDT (BD1) (Homo sapiens, UniProt Q58F21); experiment: BROMOscan competitive ligand binding assay, BRDT (BD1)
BRDT (BD1, 2) = BRDT (BD1, 2) (Homo sapiens, UniProt Q58F21); experiment: BROMOscan competitive ligand binding assay, BRDT (BD1, 2)
BRDT (BD2) = BRDT (BD2) (Homo sapiens, UniProt Q58F21); experiment: BROMOscan competitive ligand binding assay, BRDT (BD2)

Chain of BRD3 (BD1) (Q15059 34-140 limits assumed): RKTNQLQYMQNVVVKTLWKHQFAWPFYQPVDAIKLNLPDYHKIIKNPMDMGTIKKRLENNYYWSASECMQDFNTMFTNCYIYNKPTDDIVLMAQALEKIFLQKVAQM
Chain of BRD2 (BD2) (P25440 344-453 limits assumed): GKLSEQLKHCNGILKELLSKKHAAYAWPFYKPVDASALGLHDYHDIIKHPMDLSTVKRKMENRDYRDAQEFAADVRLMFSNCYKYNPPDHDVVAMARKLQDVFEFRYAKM
Chain of BRD3 (BD1, 2) (Q15059 24-416 limits assumed): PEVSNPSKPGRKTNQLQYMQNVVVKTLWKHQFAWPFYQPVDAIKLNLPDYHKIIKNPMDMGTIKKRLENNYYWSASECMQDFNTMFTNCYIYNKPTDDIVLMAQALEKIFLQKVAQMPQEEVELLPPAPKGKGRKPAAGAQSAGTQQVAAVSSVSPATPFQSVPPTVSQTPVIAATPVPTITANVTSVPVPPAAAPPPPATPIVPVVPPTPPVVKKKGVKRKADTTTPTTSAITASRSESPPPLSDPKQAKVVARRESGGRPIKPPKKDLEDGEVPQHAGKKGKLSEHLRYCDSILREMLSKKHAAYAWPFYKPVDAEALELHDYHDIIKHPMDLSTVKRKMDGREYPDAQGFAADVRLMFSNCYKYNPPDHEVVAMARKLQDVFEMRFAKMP
Chain of BRD2 (BD1) (P25440 74-180 limits assumed): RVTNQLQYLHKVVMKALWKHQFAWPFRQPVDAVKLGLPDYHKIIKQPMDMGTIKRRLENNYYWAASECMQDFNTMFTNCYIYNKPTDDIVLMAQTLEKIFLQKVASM
Chain of BRD2 (BD1, 2) (P25440 71-455 limits assumed): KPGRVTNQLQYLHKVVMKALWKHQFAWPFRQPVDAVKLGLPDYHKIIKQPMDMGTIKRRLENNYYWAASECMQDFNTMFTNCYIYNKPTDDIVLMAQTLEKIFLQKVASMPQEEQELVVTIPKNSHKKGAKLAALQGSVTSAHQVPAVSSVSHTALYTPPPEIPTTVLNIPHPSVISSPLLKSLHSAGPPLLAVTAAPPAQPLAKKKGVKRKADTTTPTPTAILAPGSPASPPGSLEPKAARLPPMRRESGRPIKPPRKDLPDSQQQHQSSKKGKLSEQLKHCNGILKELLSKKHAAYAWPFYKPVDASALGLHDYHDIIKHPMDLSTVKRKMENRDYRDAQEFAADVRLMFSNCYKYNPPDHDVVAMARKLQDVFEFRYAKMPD
Chain of BRD3 (BD2) (Q15059 306-415 limits assumed): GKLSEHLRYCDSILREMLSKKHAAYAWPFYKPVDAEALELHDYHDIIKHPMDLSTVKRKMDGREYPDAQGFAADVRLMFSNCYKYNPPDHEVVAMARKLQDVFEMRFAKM
Chain of CBP (Q92793 1085-1192 limits assumed): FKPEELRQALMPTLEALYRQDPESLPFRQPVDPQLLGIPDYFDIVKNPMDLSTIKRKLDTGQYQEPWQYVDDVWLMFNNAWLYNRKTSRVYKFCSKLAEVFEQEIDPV

Cn1cc(-c2ccc3nc(-c4cnn(CC(C)(C)O)c4)nc(N4CCOC[C@@H]4c4ccccc4)c3c2)c2cc[nH]c2c1=O [Cpd. 2, (S)-4-(2-(1-(2-hydroxy-2-methylpropyl)-1H-pyrazol-4-yl)-4-(3-phenylmorpholino)quinazolin-6-yl)-6-methyl-1,6-dihydro-7H-pyrrolo[2,3-c]pyridin-7-one]
< 100 nM: Kd (BRD4 (BD1, 2); Table 3) | Kd (BRD4 (BD1, 2); tandem bromodomains) | IC50 [1] | IC50 (MV4-11 cells) | IC50 [2] | Kd (CBP) | Kd (P300) | Kd (BRD2 (BD1)) | Kd (BRD2 (BD1, 2)) | Kd (BRD2 (BD2)) | Kd (BRD3 (BD1)) | Kd (BRD3 (BD1, 2)) | Kd (BRD3 (BD2)) | Kd (BRD4 (BD1)) | Kd (BRD4 (BD2)) | Kd (BRDT (BD1)) | Kd (BRDT (BD1, 2)) | Kd (BRDT (BD2))
